Experimental data published in publication PMC6201295 (Leukemia & lymphoma, 2018).
Where two headings read alike, the source gives them in different places.

Experiments:
NAT = settings: cited from earlier work
non-APL AML blast cells = settings: blasts from more than half of 23 non-APL AML patients; cited from earlier work
[1] = Plasma pharmacokinetics of ATRA in study patients; assay type: in vivo; settings: human, oral, 22.5 mg/m2
CYP2E1 = settings: cited from earlier work
CYP3A4 = settings: liver microsome CYP3A4; cited from earlier work
CYP2C8 = settings: liver microsome CYP2C8; cited from earlier work
[2] = cited from earlier work
[3] = Plasma pharmacokinetics of dasatinib in study patients
[4] = between- and within patient variability

**Q.** For `CC1=C(/C=C/C(C)=C/C=C/C(C)=C/C(=O)O)C(C)(C)CCC1` [ATRA, all-trans retinoic acid], which “increase of the activity of NAT” value (NAT) is on record?
**A.** 29%

**Q.** What about the “sensitivity of blasts to ATRA in vitro” value (non-APL AML blast cells) of the same compound?
**A.** moderately sensitive

**Q.** And the AUC(0-inf) [1]?
**A.** 594 ng·h/mL

**Q.** What about the AUC(0-t) [1] of the same compound?
**A.** 578 ng·h/mL

**Q.** And the Cmax [1]?
**A.** 277 ng/mL

**Q.** What about the Tmax [1] of the same compound?
**A.** 1.6 h

**Q.** What about the Vd [1] of the same compound?
**A.** 101 L

**Q.** What about the clearance [1] of the same compound?
**A.** 737 mL/min

**Q.** And the half-life [1]?
**A.** 0.81 h

**Q.** What about the “increase of the activity of CYP2E1” value (CYP2E1) of the same compound?
**A.** 83%

**Q.** What does the source list for `Cc1nc(Nc2ncc(C(=O)Nc3c(C)cccc3Cl)s2)cc(N2CCN(CCO)CC2)n1` [Dasatinib]?
**A.** Ki (CYP3A4): […]; Ki (CYP2C8): […]; Cmax ([2]; after a 100 mg dose, (SD)): 56 (SD 66) ng/mL; time of Cmax ([2]; after a 100 mg dose): 1.5 h; coefficient of variation of AUC [2, 4]: […]; coefficient of variation of Cmax [2, 4]: […]; increase in dasatinib exposure ([3]; 2 patients, after a month of combination therapy): ~50%; Cmax ([3]; dasatinib 100 mg, with ATRA, mean (SD), N=3): 103 (49) ng/mL; Vd ([3]; human, plasma, oral): […]; clearance ([3]; human, plasma, oral): 6750 mL/min; half-life ([3]; human, plasma, oral): 2.8 h; AUC(0-inf) ([3]; human, plasma, oral, 70 mg): 206 ng·h/mL; AUC(0-t) ([3]; human, plasma, oral, 70 mg): 178 ng·h/mL; Cmax ([3]; human, plasma, oral, 70 mg): 77 ng/mL; Vd ([3]; human, plasma, oral, 70 mg): 2310 L; clearance ([3]; human, plasma, oral, 70 mg): 8170 mL/min; half-life ([3]; human, plasma, oral, 70 mg): 2.9 h; Tmax ([3]; human, plasma, oral, 70 mg, dasatinib 70 mg, with ATRA, mean (SD), N=6): 1.7 h; AUC(0-inf) ([3]; human, plasma, oral, 100 mg): 434 ng·h/mL; AUC(0-t) ([3]; human, plasma, oral, 100 mg): 373 ng·h/mL; Vd ([3]; human, plasma, oral, 100 mg): 1070 L; clearance ([3]; human, plasma, oral, 100 mg): 3920 mL/min; Tmax ([3]; human, plasma, oral, 100 mg, dasatinib 100 mg, with ATRA, mean (SD), N=3): 2.5 h
